Measured values as given in patent US6737383B1, “Herbicidal oxadiazolidines” (priority 1999, dated 2004).

How the values were obtained:
[1] = test system: wheat; experiment: Test B pre/postemergence wheat; format: in vivo, Triticum aestivum; settings: for Wheat plant response rating: scale of 0 to 10 where 0 is no effect and 10 is complete control
Outline: (§1)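 Herbicidal effect was estimated by eye on a ten-point control scale after plants spent twelve to sixteen days in a greenhouse following soil or foliar treatment. Foliar sprays targeted plants at one to four leaves; all doses were formulated in a non-phytotoxic solvent with surfactant.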

[2] = test system: wild oat; experiment: Test B pre/postemergence wild oat; format: in vivo, Avena fatua; settings: for Wild oats plant response rating: scale of 0 to 10 where 0 is no effect and 10 is complete control
Outline: as §1

[3] = test system: duck salad; experiment: Test B flood test duck salad; format: in vivo, Heteranthera limosa
Outline: (§2)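 Read-out is a visual response score from 0 (no effect) to 10 (complete control), assigned by comparison with untreated controls. Treatment was applied at the 2-leaf stage, and plants stayed in the greenhouse for twelve to sixteen days before scoring.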

[4] = test system: bedstraw; experiment: Test B pre/postemergence bedstraw; format: in vivo, Galium aparine; settings: Preemergence, scale of 0 to 10 where 0 is no effect and 10 is complete control
Outline: as §1

[5] = test system: rice; experiment: Test B flood test rice; format: in vivo, Oryza sativa
Outline: as §2

[6] = test system: blackgrass; experiment: Test B pre/postemergence blackgrass; format: in vivo, Alopecurus myosuroides
Outline: as §1

[7] = test system: pigweed; experiment: Test B pre/postemergence pigweed; format: in vivo, Amaranthus retroflexus; settings: for Redroot pigweed plant response rating: scale of 0 to 10 where 0 is no effect and 10 is complete control
Outline: as §1

[8] = test system: purple nutsedge; experiment: Test B pre/postemergence purple nutsedge; format: in vivo, Cyperus rotundus; settings: for Nutsedge plant response rating: scale of 0 to 10 where 0 is no effect and 10 is complete control
Outline: as §1

[9] = test system: bamyardgrass; experiment: Test B flood test barnyardgrass; format: in vivo, Echinochloa crus-galli
Outline: as §2

[10] = test system: corn; experiment: Test B pre/postemergence corn; format: in vivo, Zea mays; settings: for Corn plant response rating: scale of 0 to 10 where 0 is no effect and 10 is complete control
Outline: as §1

[11] = test system: morningglory; experiment: Test B pre/postemergence morningglory; format: in vivo, Ipomoea hederacea; settings: for Morningglory plant response rating: scale of 0 to 10 where 0 is no effect and 10 is complete control
Outline: as §1

[12] = test system: cocklebur; experiment: Test B pre/postemergence cocklebur; format: in vivo, Xanthium strumarium; settings: for Cocklebur plant response rating: scale of 0 to 10 where 0 is no effect and 10 is complete control
Outline: as §1

[13] = test system: rape; experiment: Test B pre/postemergence rape; format: in vivo, Brassica napus; settings: for Rape plant response rating: scale of 0 to 10 where 0 is no effect and 10 is complete control
Outline: as §1

[14] = test system: velvetleaf; experiment: Test B pre/postemergence velvetleaf; format: in vivo, Abutilon theophrasti; settings: for Velvetleaf plant response rating: scale of 0 to 10 where 0 is no effect and 10 is complete control
Outline: as §1

[15] = test system: surinam grass; experiment: Test B pre/postemergence surinam grass; format: in vivo, Brachiaria decumbens
Outline: as §1

[16] = test system: smallflower flatsedge; experiment: Test B flood test smallflower flatsedge; format: in vivo, Cyperus difformis
Outline: as §2

[17] = Postemergence, Rate 125 g/ha, scale 0 to 10, 0 is no effect, 10 is complete control
[18] = Preemergence, Rate 62 g/ha, scale 0 to 10 (0 no effect, 10 complete control)
[19] = Rate 500 g/ha, Postemergence, scale 0 to 10, 0 no effect, 10 complete control
[20] = Postemergence (flood test), Rate 125 g/ha, scale 0 to 10, 0 is no effect, 10 is complete control
[21] = Rate 62 g/ha, Postemergence (flood test species), scale of 0 to 10 where 0 is no effect and 10 is complete control
[22] = Rate 62 g/ha, flood test species, Pre-emergence, visual evaluation after twelve to sixteen days
[23] = Rate 125 g/ha, Pre-emergence, flood test species, scale 0 to 10 where 0 is no effect and 10 is complete control
[24] = Rate 250 g/ha, Pre-emergence, flood-test species, scale 0 to 10, 0 is no effect, 10 is complete control
[25] = Rate 500 g/ha, listed under Postemergence (flood test species), scale 0 to 10, 0 no effect, 10 complete control
[26] = Rate 500 g/ha, Pre-emergence, flood test species, scale 0 to 10 (0 no effect, 10 complete control)
[27] = Preemergence, Rate 250 g/ha, scale of 0 to 10 where 0 is no effect and 10 is complete control
[28] = Preemergence, Rate 500 g/ha, scale of 0 to 10 where 0 is no effect and 10 is complete control
[29] = Rate 62 g/ha, Postemergence, scale of 0 to 10 where 0 is no effect and 10 is complete control
[30] = Rate 250 g/ha, Postemergence, scale of 0 to 10 where 0 is no effect and 10 is complete control

CC(C)N(C(=O)n1oc(=O)n(C2CCC2)c1=O)c1ccc(F)cc1F [Compound 351]
Plant response rating, Wheat [1, 17]: 0 | Plant response rating, Wheat [1, 18]: 0 | Wheat plant response rating (0 to 10 scale) ([1]; Preemergence, Rate 125 g/ha): 0 | Wheat plant response rating ([1]; Preemergence, Rate 250 g/ha): 0 | Wheat plant response rating ([1]; Preemergence, Rate 500 g/ha): 2 | Wheat plant response rating ([1]; Rate 62 g/ha, Postemergence): 0 | Plant response rating, Wheat [1, 19]: 2 | Plant response rating, Wild oats [2, 17]: 0 | Plant response rating, Wild oats [2, 18]: 0 | Wild oats plant response rating (0 to 10 scale) ([2]; Preemergence, Rate 125 g/ha): 0 | Wild oats plant response rating ([2]; Preemergence, Rate 250 g/ha): 2 | Wild oats plant response rating ([2]; Preemergence, Rate 500 g/ha): 4 | Wild oats plant response rating ([2]; Rate 62 g/ha, Postemergence): 0 | Plant response rating, Wild oats [2, 19]: 5 | Plant response rating, Ducksalad [3, 20]: 0 | Ducksalad plant response rating [3, 21]: 0 | Plant response rating, Ducksalad (0 to 10 scale, 0 is no effect, 10 is complete control) [3, 22]: 0 | Ducksalad plant response rating [3, 23]: 0 | Ducksalad plant response rating [3, 24]: 0 | Plant response rating, Ducksalad [3, 25]: 4 | Ducksalad plant response rating [3, 26]: 0 | Bedstraw plant response rating ([4]; Rate 250 g/ha): 9 | Bedstraw plant response rating ([4]; Rate 500 g/ha): 10 | Plant response rating, Rice [5, 20]: 0 | Rice plant response rating [5, 21]: 0 | Plant response rating, Rice (0 to 10 scale, 0 is no effect, 10 is complete control) [5, 22]: 0 | Rice plant response rating [5, 23]: 0 | Rice plant response rating [5, 24]: 0 | Plant response rating, Rice [5, 25]: 0 | Rice plant response rating [5, 26]: 0 | Plant response rating, Blackgrass [6, 17]: 2 | Plant response rating, Blackgrass [6, 18]: 0 | Blackgrass plant response rating (0 to 10 scale) ([6]; Preemergence, Rate 125 g/ha): 2 | Blackgrass plant response rating [6, 27]: 3 | Blackgrass plant response rating [6, 28]: 8 | Blackgrass plant response rating [6, 29]: 0 | Plant response rating, Blackgrass [6, 30]: 4 | Plant response rating, Blackgrass [6, 19]: 4 | Plant response rating, Redroot pigweed [7, 17]: 0 | Plant response rating, Redroot pigweed [7, 18]: 10 | Redroot pigweed plant response rating (0 to 10 scale) ([7]; Preemergence, Rate 125 g/ha): 10 | Redroot pigweed plant response rating ([7]; Preemergence, Rate 250 g/ha): 10 | Redroot pigweed plant response rating ([7]; Preemergence, Rate 500 g/ha): 10 | Redroot pigweed plant response rating ([7]; Rate 62 g/ha, Postemergence): 0 | Plant response rating, Redroot pigweed [7, 19]: 7 | Plant response rating, Nutsedge [8, 17]: 0 | Plant response rating, Nutsedge [8, 18]: 0 | Nutsedge plant response rating (0 to 10 scale) ([8]; Preemergence, Rate 125 g/ha): 0 | Nutsedge plant response rating ([8]; Preemergence, Rate 250 g/ha): 0 | Nutsedge plant response rating ([8]; Preemergence, Rate 500 g/ha): 9 | Nutsedge plant response rating ([8]; Rate 62 g/ha, Postemergence): 0 | Plant response rating, Nutsedge [8, 19]: 0 | Plant response rating, Barnyardgrass [9, 20]: 3 | Barnyardgrass plant response rating [9, 21]: 0 | Plant response rating, Barnyardgrass (0 to 10 scale, 0 is no effect, 10 is complete control) [9, 22]: 0 | Barnyardgrass plant response rating [9, 23]: 0 | Plant response rating, Barnyardgrass ([9]; Rate 250 g/ha, Postemergence (flood test species), scale of 0 to 10 where 0 is no effect and 10 is complete control): 3 | Barnyardgrass plant response rating [9, 24]: 0 | Plant response rating, Barnyardgrass [9, 25]: 5 | Barnyardgrass plant response rating [9, 26]: 0 | Plant response rating, Corn [10, 17]: 0 | Plant response rating, Corn [10, 18]: 0 | Corn plant response rating (0 to 10 scale) ([10]; Preemergence, Rate 125 g/ha): 0 | Corn plant response rating ([10]; Preemergence, Rate 250 g/ha): 3 | Corn plant response rating ([10]; Preemergence, Rate 500 g/ha): 6 | Corn plant response rating ([10]; Rate 62 g/ha, Postemergence): 0 | Plant response rating, Corn [10, 19]: 0 | Plant response rating, Morningglory [11, 17]: 4 | Plant response rating, Morningglory [11, 18]: 0 | Morningglory plant response rating (0 to 10 scale) ([11]; Preemergence, Rate 125 g/ha): 0 | Morningglory plant response rating ([11]; Preemergence, Rate 250 g/ha): 0 | Morningglory plant response rating ([11]; Preemergence, Rate 500 g/ha): 0 | Morningglory plant response rating ([11]; Rate 62 g/ha, Postemergence): 3 | Plant response rating, Morningglory [11, 19]: 6 | Plant response rating, Cocklebur [12, 17]: 0 | Plant response rating, Cocklebur [12, 18]: 0 | Cocklebur plant response rating (0 to 10 scale) ([12]; Preemergence, Rate 125 g/ha): 0 | Cocklebur plant response rating ([12]; Preemergence, Rate 250 g/ha): 0 | Cocklebur plant response rating ([12]; Preemergence, Rate 500 g/ha): 0 | Cocklebur plant response rating ([12]; Rate 62 g/ha, Postemergence): 0 | Plant response rating, Cocklebur [12, 19]: 2 | Plant response rating, Rape [13, 17]: 0 | Plant response rating, Rape [13, 18]: 0 | Rape plant response rating (0 to 10 scale) ([13]; Preemergence, Rate 125 g/ha): 3 | Rape plant response rating ([13]; Preemergence, Rate 250 g/ha): 6 | Rape plant response rating ([13]; Preemergence, Rate 500 g/ha): 9 | Rape plant response rating ([13]; Rate 62 g/ha, Postemergence): 0 | Plant response rating, Rape [13, 19]: 5 | Plant response rating, Velvetleaf [14, 17]: 0 | Plant response rating, Velvetleaf [14, 18]: 0 | Velvetleaf plant response rating (0 to 10 scale) ([14]; Preemergence, Rate 125 g/ha): 3 | Velvetleaf plant response rating ([14]; Preemergence, Rate 250 g/ha): 4 | Velvetleaf plant response rating ([14]; Preemergence, Rate 500 g/ha): 5 | Velvetleaf plant response rating ([14]; Rate 62 g/ha, Postemergence): 0 | Plant response rating, Velvetleaf [14, 19]: 6 | Plant response rating, B. signalgrass [15, 17]: 0 | Plant response rating, B. signalgrass [15, 18]: 0 | B. signalgrass plant response rating (0 to 10 scale, 0 is no effect, 10 is complete control) ([15]; Preemergence, Rate 125 g/ha): 0 | B. signalgrass plant response rating [15, 27]: 2 | B. signalgrass plant response rating [15, 28]: 4 | B. signalgrass plant response rating [15, 29]: 0 | Plant response rating, B. signalgrass [15, 30]: 0 | Plant response rating, B. signalgrass [15, 19]: 4 | Plant response rating, S. Flatsedge [16, 20]: 6 | S. Flatsedge plant response rating [16, 21]: 0 | Plant response rating, S. Flatsedge (0 to 10 scale, 0 is no effect, 10 is complete control) [16, 22]: 0 | S. Flatsedge plant response rating [16, 23]: 0 | S. Flatsedge plant response rating [16, 24]: 0 | Plant response rating, S. Flatsedge [16, 25]: 8 | S. Flatsedge plant response rating [16, 26]: 0
